Data reported in ChEMBL document CHEMBL3877331, “Affinity-Based Selectivity Profiling of an In-Class Selective Competitive Inhibitor of Acyl Protein Thioesterase 2” (ACS Med Chem Lett, 2017).
Calls of active or inactive are those of the source. No cut-off for these calls is given here.

Tests used:
[1] = target: T1, Acyl-protein thioesterase 2 (Homo sapiens, UniProt O95372); test: Competitive inhibition of HEK293T cells-derived His-tagged APT2 expressed in Escherichia coli BL21(DE3) preincubated for 30 mins followed by substrate addition by resorufin dye based acetate hydrolysis assay; design: species or system HEK-293T
[2] = target: FAD synthase (Homo sapiens) (UniProt Q8NFF5); test: Binding affinity to FAD1 in HEK293T cells at 50 uM incubated for 1 hr by mass spectrometry analysis relative to azide-PEG3-biotin; assay type: cell-based; settings: HEK-293T
[3] = target: T2, Ribosyldihydronicotinamide dehydrogenase [quinone] (Homo sapiens) (UniProt P16083); test: Binding affinity to NQO2 in HEK293T cells at 50 uM incubated for 1 hr by mass spectrometry analysis relative to azide-PEG3-biotin; assay type: cell-based; settings: HEK-293T
T2 sequence (whole entry): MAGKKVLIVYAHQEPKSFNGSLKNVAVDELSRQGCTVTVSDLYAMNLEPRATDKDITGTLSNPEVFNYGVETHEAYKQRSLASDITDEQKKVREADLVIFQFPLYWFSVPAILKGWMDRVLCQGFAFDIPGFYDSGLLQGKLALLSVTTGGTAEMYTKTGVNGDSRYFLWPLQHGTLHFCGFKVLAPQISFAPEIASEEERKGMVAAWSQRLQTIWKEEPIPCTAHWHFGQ

[4] = target: T3, Pyridoxal kinase (Homo sapiens) (UniProt O00764); test: Binding affinity to HEK293T cells-derived His-tagged PDXK expressed in Escherichia coli BL21(DE3) assessed as stoichiometric complex formation at 10 uM after 5 mins by electrospray ionization native mass spectrometry; settings: HEK-293T
T3 sequence (whole entry): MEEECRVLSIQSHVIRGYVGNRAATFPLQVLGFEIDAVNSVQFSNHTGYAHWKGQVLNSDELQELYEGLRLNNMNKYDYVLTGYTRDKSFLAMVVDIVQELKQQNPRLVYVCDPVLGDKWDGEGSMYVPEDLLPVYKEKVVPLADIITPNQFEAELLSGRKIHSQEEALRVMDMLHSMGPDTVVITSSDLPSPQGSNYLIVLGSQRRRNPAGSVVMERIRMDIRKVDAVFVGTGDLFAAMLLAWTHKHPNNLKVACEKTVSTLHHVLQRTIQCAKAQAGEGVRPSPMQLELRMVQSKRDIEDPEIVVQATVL

[5] = target: T2, Ribosyldihydronicotinamide dehydrogenase [quinone] (Homo sapiens); test: Binding affinity to HEK293T cells-derived His-tagged NQO2 expressed in Escherichia coli BL21(DE3) assessed as stoichiometric complex formation at 10 uM after 5 mins by electrospray ionization native mass spectrometry; settings: HEK-293T
[6] = target: T4, Pyridoxal kinase (Homo sapiens, UniProt O00764); test: Inhibition of fluorescein-labeled ML349 binding to HEK293T cells-derived His-tagged PDXK expressed in Escherichia coli BL21(DE3) after 30 mins by fluorescence polarization assay; design: species or system HEK-293T
T4 sequence (O00764 whole entry): T3 sequence (whole entry)

[7] = target: T1, Acyl-protein thioesterase 2; test: Binding affinity to HEK293T cells-derived His-tagged APT2 expressed in Escherichia coli BL21(DE3) assessed as stoichiometric complex formation at 10 uM after 5 mins by electrospray ionization native mass spectrometry; settings: HEK-293T
[8] = target: T1, Acyl-protein thioesterase 2; test: Binding affinity to APT2 in HEK293T cells at 50 uM incubated for 1 hr by mass spectrometry analysis relative to o-ML349-biotin; assay type: cell-based; settings: HEK-293T
[9] = target: Deoxycytidine kinase (Homo sapiens) (UniProt P27707); test: Binding affinity to DCK in HEK293T cells at 50 uM incubated for 1 hr by mass spectrometry analysis relative to o-ML349-biotin; assay type: cell-based; settings: HEK-293T
[10] = target: Adenosine kinase (Homo sapiens) (UniProt P55263); test: Binding affinity to ADK in HEK293T cells at 50 uM incubated for 1 hr by mass spectrometry analysis relative to azide-PEG3-biotin; assay type: cell-based; settings: HEK-293T
[11] = target: T2, Ribosyldihydronicotinamide dehydrogenase [quinone] (Homo sapiens); test: Binding affinity to NQO2 in HEK293T cells at 50 uM incubated for 1 hr by mass spectrometry analysis relative to o-ML349-biotin; assay type: cell-based; settings: HEK-293T
[12] = target: Adenosine kinase (Homo sapiens) (UniProt P55263); test: Binding affinity to ADK in HEK293T cells at 50 uM incubated for 1 hr by mass spectrometry analysis relative to o-ML349-biotin; assay type: cell-based; settings: HEK-293T
[13] = target: T3, Pyridoxal kinase (Homo sapiens); test: Binding affinity to PDXK in HEK293T cells at 50 uM incubated for 1 hr by mass spectrometry analysis relative to azide-PEG3-biotin; assay type: cell-based; settings: HEK-293T
[14] = target: FAD synthase (Homo sapiens) (UniProt Q8NFF5); test: Binding affinity to FAD1 in HEK293T cells at 50 uM incubated for 1 hr by mass spectrometry analysis relative to o-ML349-biotin; assay type: cell-based; settings: HEK-293T
[15] = target: T1, Acyl-protein thioesterase 2; test: Binding affinity to APT2 in HEK293T cells at 50 uM incubated for 1 hr by mass spectrometry analysis relative to azide-PEG3-biotin; assay type: cell-based; settings: HEK-293T
[16] = target: T3, Pyridoxal kinase (Homo sapiens); test: Binding affinity to PDXK in HEK293T cells at 50 uM incubated for 1 hr by mass spectrometry analysis relative to o-ML349-biotin; assay type: cell-based; settings: HEK-293T
[17] = target: T1, Acyl-protein thioesterase 2; test: Binding affinity to APT2 in HEK293T cells at 50 uM preincubated for 1 hr followed by FP-TAMRA labeling by in-gel fluorescence assay; assay type: cell-based; settings: HEK-293T
[18] = test system: MDCK; test: Binding affinity to APT2 in MDCK cells at 50 uM incubated for 1 hr by mass spectrometry analysis; assay type: cell-based; settings: Canis lupus familiaris
[19] = target: T1, Acyl-protein thioesterase 2; test: Inhibition of fluorescein-labeled ML349 binding to HEK293T cells-derived His-tagged APT2 expressed in Escherichia coli BL21(DE3) after 30 mins by fluorescence polarization assay; design: species or system HEK-293T
[20] = target: Deoxycytidine kinase (Homo sapiens) (UniProt P27707); test: Binding affinity to DCK in HEK293T cells at 50 uM incubated for 1 hr by mass spectrometry analysis relative to azide-PEG3-biotin; assay type: cell-based; settings: HEK-293T

T1 sequence (O95372 whole entry): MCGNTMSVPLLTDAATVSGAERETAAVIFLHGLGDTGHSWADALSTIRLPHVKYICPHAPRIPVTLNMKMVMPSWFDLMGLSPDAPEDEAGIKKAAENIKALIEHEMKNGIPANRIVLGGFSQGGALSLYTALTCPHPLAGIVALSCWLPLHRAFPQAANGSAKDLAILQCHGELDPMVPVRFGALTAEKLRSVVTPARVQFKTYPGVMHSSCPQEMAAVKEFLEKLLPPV
Sequence of FAD synthase (Homo sapiens) (Q8NFF5 whole entry): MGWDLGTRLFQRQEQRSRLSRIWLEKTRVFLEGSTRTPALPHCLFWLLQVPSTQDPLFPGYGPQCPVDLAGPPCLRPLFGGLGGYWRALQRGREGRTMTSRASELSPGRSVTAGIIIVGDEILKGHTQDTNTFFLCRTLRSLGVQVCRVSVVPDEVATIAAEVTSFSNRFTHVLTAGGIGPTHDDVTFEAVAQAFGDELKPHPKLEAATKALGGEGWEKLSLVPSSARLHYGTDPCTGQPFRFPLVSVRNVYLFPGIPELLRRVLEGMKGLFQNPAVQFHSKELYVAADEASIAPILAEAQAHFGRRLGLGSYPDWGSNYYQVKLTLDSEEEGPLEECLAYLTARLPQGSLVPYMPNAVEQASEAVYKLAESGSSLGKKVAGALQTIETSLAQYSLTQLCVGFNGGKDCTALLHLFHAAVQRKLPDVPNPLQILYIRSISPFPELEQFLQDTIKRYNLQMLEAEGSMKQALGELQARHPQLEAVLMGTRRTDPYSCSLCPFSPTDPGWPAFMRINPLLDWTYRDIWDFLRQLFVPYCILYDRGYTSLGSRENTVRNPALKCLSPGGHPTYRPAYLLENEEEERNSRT
Sequence of Deoxycytidine kinase (Homo sapiens) (P27707 whole entry, looked up): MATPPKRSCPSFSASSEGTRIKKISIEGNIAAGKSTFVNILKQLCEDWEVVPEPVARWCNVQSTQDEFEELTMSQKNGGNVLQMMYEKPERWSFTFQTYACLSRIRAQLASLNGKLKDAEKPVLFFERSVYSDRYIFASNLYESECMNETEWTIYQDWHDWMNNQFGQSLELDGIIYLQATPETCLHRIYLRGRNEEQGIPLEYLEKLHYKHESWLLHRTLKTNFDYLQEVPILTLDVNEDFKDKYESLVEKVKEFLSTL
Sequence of Adenosine kinase (Homo sapiens) (P55263 2-362 limits assumed): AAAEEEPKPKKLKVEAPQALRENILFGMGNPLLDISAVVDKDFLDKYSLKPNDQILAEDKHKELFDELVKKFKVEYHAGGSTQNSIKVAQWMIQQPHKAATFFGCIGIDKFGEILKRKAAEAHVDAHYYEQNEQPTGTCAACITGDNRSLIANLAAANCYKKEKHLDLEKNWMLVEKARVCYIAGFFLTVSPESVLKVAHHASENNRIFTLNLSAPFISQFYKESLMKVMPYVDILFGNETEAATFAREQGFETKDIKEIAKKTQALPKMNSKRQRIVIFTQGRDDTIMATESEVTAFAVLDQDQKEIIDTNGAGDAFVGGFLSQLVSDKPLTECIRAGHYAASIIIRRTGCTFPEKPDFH

Ki [1] | fold change (FC) [2] | fold change (FC) [3] | Activity [4] | Activity [5] | IC50 [6] | Activity [7] | fold change (FC) [8] | fold change (FC) [9] | fold change (FC) [10] | fold change (FC) [11] | fold change (FC) [12] | fold change (FC) [13] | fold change (FC) [14] | fold change (FC) [15] | fold change (FC) [16] | Activity [17] | IC50 [19] | fold change (FC) [20] | Structure (SMILES) | Activity [18]
> 10 µM |  |  |  |  |  |  |  |  |  |  |  |  |  |  |  |  |  |  | [N-]=[N+]=NCCOCCOCCOCCNC(=O)CCCC[C@@H]1SC[C@@H]2NC(=O)N[C@@H]21 | 
> 10 µM | 3 | 3 |  |  |  |  |  |  |  |  |  |  |  |  |  |  |  |  | O=C(CCCC[C@@H]1SC[C@@H]2NC(=O)N[C@@H]21)NCCOCCOCCOCCn1cc(COc2ccccc2N2CCN(C(=O)c3cc4c(s3)-c3ccccc3S(=O)(=O)C4)CC2)nn1 | 
 |  |  | Active | Active | > 10 µM | Active |  |  |  |  |  |  |  |  |  |  |  |  | COc1ccc(N2CCN(C(=O)c3cc4c(s3)-c3ccccc3S(=O)(=O)C4)CC2)cc1 | 
1.1 µM | > 5 | > 5 | Active | Active | > 10 µM | Active | > 5 | > 5 | > 5 | > 5 | > 5 | > 5 | > 5 | > 5 | > 5 | Active | > 10 µM | > 5 | O=C(CCCC[C@@H]1SC[C@@H]2NC(=O)N[C@@H]21)NCCOCCOCCOCCn1cc(COc2ccc(N3CCN(C(=O)c4cc5c(s4)-c4ccccc4S(=O)(=O)C5)CC3)cc2)nn1 | Active
